Measurements as given in patent US12415811B2, “1,2,3',5'-tetrahydro-2'h-spiro[indole-3,1'-pyrrolo[3,4-C]pyrrole]-2,3'-dione compounds as therapeutic agents activating TP53” (ADAMED PHARMA, S.A., priority 2018, dated 2025).
Read-outs that look alike come from different tables or passages of the source.

How the values were obtained:
[1] = biological target: p53-Mdm2 interaction (Homo sapiens (Human), UniProt Q00987); experiment: Fluorescence polarization (FP) binding assay, inhibition of p53-Mdm2 interaction; settings: 75 nM Mdm2 (amino acids 1-111), 10 nM FAM-labelled p53 peptide; IC50 transformed to Ki using Kenakin equation
Description: The inhibition of p53-Mdm2 interaction was measured using a fluorescence polarization (FP) binding assay. FP measures the rotational movement of molecules in a homogenous suspension. For this assay, N-terminal domain of Mdm2 protein (amino acids 1-111) is combined with a fluorescein-labeled (FAM) peptide derived from p53 trans-activation domain (Sequence: 5-FAM-TSFAEYWNLLSP). Upon excitation of the fluorescent ligand with linearly polarized light the peptide emits perpendicularly polarized light. If the peptide is bound by Mdm2, rotation will slow down and the perpendicular component will proportionally decrease. In opposition disruption of the peptide-Mdm2 complex due to binding of an inhibitor to the p53 binding site of Mdm2 results in releasing of peptide and decreasing of emitted light polarization.
Fluorescence polarization experiments were read on Biotek Cytation 5 reader with the 470 nm excitation and 520 nm emission filters for fluorescein. The fluorescence polarization was measured in black 96-well plates (Corning, CLS3991) in room temperature. Purity of Mdm2 was controlled at >95%. Reaction buffer was optimized by adding 5 mM DTT and 0.1% zwitterionic detergent CHAPS to reduce effect of nonspecific interactions.
The test was performed by combining successive dilution of compounds diluted in dimethyl sulfoxide (DMSO, 5% final concentration) with 75 nM Mdm2 in reaction buffer (PBS, 0.1% CHAPS, 5 mM DTT (dithiothreitol)). After 15 minutes of incubation in room temperature 10 nM FAM-labelled peptide was added. Final reading was performed after 90 minutes of incubation. Dose-dependent binding curves and IC50 values were calculated using GraphPad Prism5 and next transformed to Ki values using Kenakin equation (Table 2).

[2] = tested on: SJSA-1 osteosarcoma cell line; experiment: Cell viability MTT assay; type: cell-based; settings: Homo sapiens, 72 h incubation, average of 2-5 experiments
Description: The effect of the invented p53-Mdm2 inhibitors on cell viability has been assessed using MTT assay. It is a colorimetric assay that measures conversion of tetrazolium ring of the soluble yellow dye (MTT) into insoluble purple formazan. This process is catalyzed solely in mitochondrial dehydrogenases of living cells.
Cells were seeded on 96-well plates and then treated with successive dilutions of tested compounds. After 72 h incubation, MTT was added to the final concentration 0.5 mg/ml. The cells were further incubated for the next 4 h. Then the solution was drained and the remaining formazan crystals were dissolved in 100 μl DMSO. […] All the MTT experiments were independently repeated 2-5 times. Dose-dependent binding curves and IC50 values were calculated using GraphPad Prism 5. The presented IC50 values represent the average value from all the performed experiments (Table 3).

[3] = In vitro intrinsic clearance in murine microsomes; type: in vitro ADME; settings: mouse, pH 7.4; murine microsomes 0.5 mg/ml, 1 μM compound, 37° C., up to 1 hour; read-out: murine MS Clint
Description: (§1) Metabolic stability of the compounds of the invention has been assessed by measurement of the in vitro intrinsic clearance in murine and human microsomes.
(§2) 10 mM stock solutions of markers and test compounds were prepared in DMSO. These were diluted 100-fold in 91:9 MeCN:DMSO to obtain a 100 μM assay stock. 10 mM NADPH was made up in 0.1M phosphate buffer (pH7.4). Microsomes were thawed in a waterbath at 37° C., and diluted to give a final assay concentration of 0.5 mg/ml.
(§3) 100 μM assay stocks were added to give a final concentration of 1 μM to incubation tubes containing buffer and NADPH (final assay concentration is 1 mM). Incubation tubes and microsomes were pre-warmed at 37° C. for 3 minutes. The microsomes were then added to the incubation tubes which were kept at 37° C. and shaken using the orbital shaker for the duration of the assay. Samples were taken at 6 pre-determined time points up to 1 hour and transferred to the prepared quench tubes containing an appropriate solvent with internal standard.
(§4) Quenched samples are mixed thoroughly and protein precipitated at −20° C. for a minimum of 12 hours. Samples were then centrifuged at 4° C. Supernatants were transferred to a fresh 96 well plate, compatible with the auto-sampler. The plate was sealed with a pre-slit silicone mat and analyzed by LC-MS/MS.

[4] = In vitro intrinsic clearance in human microsomes; type: in vitro ADME; settings: pH 7.4; human microsomes 0.5 mg/ml, 1 μM compound, 37° C., up to 1 hour; read-out: human MS Clint
Description: as §1, §2, §3, §4

[5] = tested on: SJSA-1 xenograft; experiment: In vivo efficacy in the SJSA-1 xenograft model in mice; settings: for effect of treatment on tumors (in words): 14 doses of 12.5 mg/kg p.o., SJSA-1 xenograft; for inhibition in vivo at 12.5 mg/kg: Mus musculus, po, 12.5 mg/kg p.o., q1d, SJSA-1 xenograft in Crl:CD-1-Foxn1nu mice, mean; for regrowth of lesions during follow-up: after 14 doses of 12.5 mg/kg p.o., follow-up to day 101
Description: The experiment was conducted on female mice from the Crl:CD-1-Foxn1nu strain. Mice were inoculated subcutaneously in the right flank with cancer cell line SJSA-1 in the amount of 3×10^6 cells suspended in 100 μl HBSS: Matrigel matrix in a 3:1 ratio per mouse. On the 17th day after inoculation mice were divided into groups, so that in each group the mean tumor volume was similar and averaged around 200 mm^3. Experiment groups were selected, each consisting of 8 mice: Control NaCl 0.9% and compounds. Compounds 1-11 were dissolved in 56.60% PEG 400, 9.43% Cremophor RH40, 9.43% ETOH, 18.87% Labrafil M1944CS, 5.67% DMSO. For Compound 107 from WO2015/189799, group of 7 mice was used, and it was dissolved in 15% PEG400, 10% Cremophor EL, 75% H2O.
[…] During the course of experiment mice were weighed before each administration, —twice/thrice a week. Animal welfare was monitored daily. No significant difference in body weight or welfare was observed between experiment groups during and at the end of study.
Change in tumor volume was monitored twice/thrice a week starting from the first day of administration. Tumor volume was calculated based on its length and width measured with an electronic calipers: V[mm^3]=d^2×D/2
The tumor volume in the groups was measured up to 101 days after inoculation (72 days after last administration). Results of the experiment were expressed as mean values of tumor growth inhibition (TGI) ±SEM (Table 4). Tumor growth inhibition was calculated using the following formula TGI [%]=[100−[…]]
where C— mean tumor size in control group, T—mean tumor size in treated group. All calculations and graphs were performed using GraphPad Prism 5 software.

[6] = after 7 doses, read-out: TGI P.O. 12.5 mg/kg (7 doses) [%]
[7] = after 12 doses, read-out: TGI P.O. 12.5 mg/kg (12 doses) [%]

Sequence of p53-Mdm2 interaction (Q00987 1-111): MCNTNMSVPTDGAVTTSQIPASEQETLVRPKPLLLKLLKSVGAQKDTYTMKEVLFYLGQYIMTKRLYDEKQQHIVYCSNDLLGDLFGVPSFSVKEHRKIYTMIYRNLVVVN

Row | Structure (SMILES) | Ki [1] [nM] | IC50 [2] [µM] | microsomal CLint at 1 μM [3] [µL/min/mg] | microsomal CLint at 1 μM [4] [µL/min/mg] | effect of treatment on tumors (in words) [5] | inhibition in vivo at 12.5 mg/kg [5, 6] [%] | inhibition in vivo at 12.5 mg/kg [5, 7] [%] | regrowth of lesions during follow-up [5]
1 | COc1ncc(-n2cc3c(c2C(C)C)[C@@]2(C(=O)Nc4cc(Cl)ccc42)N(c2ccc(F)c(F)c2)C3=O)c(OC)n1 [Compound 7, (3S)-6-chloro-2′-(3,4-difluorophenyl)-5′-(2,4-dimethoxypyrimidin-5-yl)-6′-(propan-2-yl)-1,2,3′,5′-tetrahydro-2′H-spiro[indole-3,1′-pyrrolo[3,4-c]pyrrole]-2,3′-dione] | 1.9 | 0.22 | 6.6 | < 3 | complete eradication of tumors | 95 | 100 | none of the lesions exhibited regrowth
2 | COc1nc(OC)c(-n2cc3c(c2C(C)C)[C@@]2(C(=O)Nc4cc(Cl)ccc42)N(c2cc(Cl)ccc2F)C3=O)c(OC)n1 [Compound 5, (3S)-6-chloro-2′-(5-chloro-2-fluorophenyl)-6′-(propan-2-yl)-5′-(trimethoxypyrimidin-5-yl)-1,2,3′,5′-tetrahydro-2′H-spiro[indole-3,1′-pyrrolo[3,4-c]pyrrole]-2,3′-dione] | 2.2 | 0.18 | < 3 | < 3 | – | 85.8 | 96 | –
3 | CCC(C)c1c2c(cn1-c1cnc(OC)nc1OC)C(=O)N(c1cc(Cl)ccc1F)[C@]21C(=O)Nc2cc(Cl)ccc21 (some centres unmarked) [Compound 11, (3)-6′-(butan-2-yl)-6-chloro-2′-(5-chloro-2-fluorophenyl)-5′-(2,4-dimethoxypyrimidin-5-yl)-1,2,3′,5′-tetrahydro-2′H-spiro[indole-3,1′-pyrrolo[3,4-c]pyrrole]-2,3′-dione] | 2.5 | 0.05 | – | – | complete eradication of tumors | 93.7 | 99.7 | none of the lesions exhibited regrowth
4 | COc1ncc(-n2cc3c(c2C(C)C)[C@@]2(C(=O)Nc4cc(Cl)ccc42)N(c2cccc(Cl)c2)C3=O)c(OC)n1 [Compound 1, (3S)-6-chloro-2′-(3-chlorophenyl)-5′-(2,4-dimethoxypyrimidin-5-yl)-6′-(propan-2-yl)-1,2,3′,5′-tetrahydro-2′H-spiro[indole-3,1′-pyrrolo[3,4-c]pyrrole]-2,3′-dione] | 1.8 | 0.18 | 8.8 | < 3 | – | 95 | 99.5 | –
5 | COc1ncc(-n2cc3c(c2C(C)C)[C@@]2(C(=O)Nc4cc(Cl)ccc42)N(c2ccc(F)c(Cl)c2)C3=O)c(OC)n1 [Compound 4, (3S)-6-chloro-2′-(3-chloro-4-fluorophenyl)-5′-(2,4-dimethoxypyrimidin-5-yl)-6′-(propan-2-yl)-1,2,3′,5′-tetrahydro-2′H-spiro[indole-3,1′-pyrrolo[3,4-c]pyrrole]-2,3′-dione] | 1.7 | 0.32 | < 3 | < 3 | – | 94.9 | 99.5 | –
6 | COc1ncc(-n2cc3c(c2C(C)C)[C@@]2(C(=O)Nc4cc(Cl)ccc42)N(c2cc(Cl)c(F)cc2F)C3=O)c(OC)n1 [Compound 10, (3S)-6-chloro-2′-(5-chloro-2,4-difluorophenyl)-5′-(2,4-dimethoxypyrimidin-5-yl)-6′-(propan-2-yl)-1,2,3′,5′-tetrahydro-2′H-spiro[indole-3,1′-pyrrolo[3,4-c]pyrrole]-2,3′-dione] | 2 | 0.4 | < 3 | < 3.2 | – | 93.5 | 98.8 | –

Second part, led by results:

Row | Ki [1] [nM] | IC50 [2] [µM] | microsomal CLint at 1 μM [3] [µL/min/mg] | microsomal CLint at 1 μM [4] [µL/min/mg] | Structure (SMILES) | effect of treatment on tumors (in words) [5] | inhibition in vivo at 12.5 mg/kg [5, 6] [%] | inhibition in vivo at 12.5 mg/kg [5, 7] [%] | regrowth of lesions during follow-up [5]
7 | 1.9 | 0.15 | 12.8 | < 3 | COc1cc(OC)c(-n2cc3c(c2C(C)C)[C@@]2(C(=O)Nc4cc(Cl)ccc42)N(c2ccc(F)c(F)c2)C3=O)cn1 [Compound 8, (3S)-6-chloro-2′-(3,4-difluorophenyl)-5′-(4,6-dimethoxypyridin-3-yl)-6′-(propan-2-yl)-1,2,3′,5′-tetrahydro-2′H-spiro[indole-3,1′-pyrrolo[3,4-c]pyrrole]-2,3′-dione] | complete eradication of tumors | 96.4 | 99.7 | none of the lesions exhibited regrowth
8 | 2 | 0.12 | – | – | COc1cc(OC)c(-n2cc3c(c2C(C)C)[C@@]2(C(=O)Nc4cc(Cl)ccc42)N(c2cc(Cl)ccc2F)C3=O)cn1 [Compound 9, (3S)-6-chloro-2′-(5-chloro-2-fluorophenyl)-5′-(4,6-dimethoxypyridin-3-yl)-6′-(propan-2-yl)-1,2,3′,5′-tetrahydro-2′H-spiro[indole-3,1′-pyrrolo[3,4-c]pyrrole]-2,3′-dione] | – | 89.5 | 97.7 | –
9 | 1.7 | 0.03 | 33.6 | 19.8 | COc1cc(N(C)C)ncc1-n1cc2c(c1C(C)C)[C@@]1(C(=O)Nc3cc(Cl)ccc31)N(c1cc(Cl)ccc1F)C2=O [Compound 6, (3S)-6-chloro-2′-(5-chloro-2-fluorophenyl)-5′-[6-(dimethylamino)-4-methoxypyridin-3-yl]-6′-(propan-2-yl)-1,2,3′,5′-tetrahydro-2′H-spiro[indole-3,1′-pyrrolo[3,4-c]pyrrole]-2,3′-dione] | – | 92 | 99.1 | –
